These results are taken from PubChem BioAssay AID1996.

Converted amounts (≈) assume the structure as drawn.

The conditions of this series: buffer; pH 7.4; 200.0 µM.
By kinetic solubility is commonly meant the concentration staying in solution when a stock, usually in DMSO, is diluted into the medium. As to `Cc1[nH]c2ccccc2c1C(=O)C(=O)N1CC2CC(C1)c1cccc(=O)n1C2` (stereo not drawn), the kinetic solubility is above 56.3 µg/mL.
With `O=C(Nc1ccc(Cl)cn1)c1ccc2[nH]c(=O)c(=O)[nH]c2c1` the figure was 11.7 µg/mL (≈ 36.9 µM); with `CC(C)C(NC(=O)c1ccccc1F)C(=O)NCC(c1ccco1)N1CCCCC1` (stereo not drawn), above 62.3 µg/mL; with `O=c1c2c3c(sc2nc2n1CCCCC2)C(O)CCC3` (stereo not drawn), above 43.6 µg/mL.
For the compound `CCOc1ccc(NC(=O)CN2C(=O)NC(CCc3ccccc3)C2=O)cc1OCC` (stereo not drawn), the kinetic solubility amounted to 8.8 µg/mL (≈ 20.7 µM).
With `CC1CN(C(=O)/C=C/c2ccccc2Cl)CC(C)O1` (stereo not drawn) the figure was 36.5 µg/mL (≈ 130 µM); with `CCCCC(CC)CNC(=O)Cn1c(=O)[nH]c2ccsc2c1=O` (stereo not drawn), 33.5 µg/mL (≈ 99.3 µM); with `CCCSc1nsc(NC(=O)CCC)n1`, 10.8 µg/mL (≈ 44 µM).
With `N#Cc1ccc(-c2cn3c(n2)SCC3)cc1` the figure was above 34.1 µg/mL; with `NC(=O)COC(=O)c1sc2ccccc2c1Cl`, 12.4 µg/mL (≈ 46 µM).
With `CCOC(=O)n1c(=O)n(Cc2ccc(OC)cc2)c2ccccc21` the figure was 29.5 µg/mL (≈ 90.4 µM); with `CCNC(=O)c1ccccc1NC(=O)C1CC(=O)N(C(C)C)C1` (stereo not drawn), above 47.6 µg/mL.
`Cn1c(-c2cccc(Br)c2)cnc1NCc1ccccc1O` came in with a solubility (kinetic) of 6.3 µg/mL (≈ 17.6 µM).
Consider `CC(NC(=O)COC(=O)c1ccc(N2CCCC2=O)cc1)c1ccc(F)cc1` (stereo not drawn), for which the kinetic solubility came to 8.2 µg/mL (≈ 21.3 µM).
In turn, `Cc1ccc(NS(=O)(=O)c2c(F)cc(F)c(Cl)c2F)cc1S(=O)(=O)N1CCOCC1` registered a solubility (kinetic) above 72.7 µg/mL.
Compound `Cc1ccccc1CN1CCN(CC2CC2)CC1CCO` (stereo not drawn) displayed a solubility (kinetic) above 43.3 µg/mL.
Under `Cc1nc(NC(=O)C2CC2)sc1C(=O)Nc1cccc(Cl)c1` stands 0.8 µg/mL (≈ 2.38 µM).
With `CCC(=O)Nc1cccc(-c2cn3cccc(C)c3n2)c1` the figure was 39.8 µg/mL (≈ 142 µM); with `O=C1C(=O)N(CC2COc3ccccc3O2)c2ccccc21` (stereo not drawn), 40.6 µg/mL (≈ 137 µM); with `Cc1cccc(C(=O)O/N=C/c2ccc(Br)cc2)c1`, below 0.7 µg/mL.
Under `O=C1c2ccccc2C(=O)N1C1CCCCC1` stands 1.3 µg/mL (≈ 5.67 µM); under `O=C(NCC(=O)N1CCCC1)c1ccc(Br)o1`, above 45.2 µg/mL; under `CCN1C(=O)NC(c2ccccc2)(c2ccccc2)C1=O`, below 0.3 µg/mL.
As to `COc1cc2c(cc1OC)C(=S)NC1(CCCC1)C2`, the kinetic solubility worked out at 5.5 µg/mL (≈ 19.8 µM).
Turning to `O=C(Nc1cc2c3c(c1)CC(=O)N3CCC2)c1ccc(Cl)cc1`, the kinetic solubility came out at 6.6 µg/mL (≈ 20.2 µM).
Under `COc1nc(NC2CCCCC2)nc(NC(C)(C)C)n1` stands 20.7 µg/mL (≈ 74.1 µM).
Take `O=C(COC(=O)Cc1ccccc1)NCc1ccc2c(c1)OCO2`: the solubility (kinetic) was above 49.1 µg/mL.
In turn, `O=C(CCS(=O)(=O)c1ccccc1)OCc1ccc([N+](=O)[O-])cc1` gave a kinetic solubility of 32 µg/mL (≈ 91.6 µM).
The compound `Cc1cc(C)cc(NC(=O)CN2C(=O)NC(Cc3c[nH]c4ccccc34)C2=O)c1` (stereo not drawn) gave a solubility (kinetic) of 2 µg/mL (≈ 5.12 µM).
With `COC(=O)CCCCCCCCC(O)CN(C)C` (stereo not drawn) the figure was 27.7 µg/mL (≈ 107 µM).
With `COc1ccc(-c2c(C(=O)O)c(C(=O)O)c3n2CCC3)cc1` the figure was above 45.2 µg/mL.
With `C/C(=C\c1ccccc1F)C(=O)c1c(C)cc(C)[nH]c1=O` the figure was above 42.8 µg/mL; with `O=C(Nc1ccc(Cl)cc1)N1CCOC12CCCCC2`, above 44.2 µg/mL; with `Cc1ccc(-c2nc(-c3ccccn3)no2)cc1[N+](=O)[O-]`, 7.4 µg/mL (≈ 26.2 µM).
For `CC(C)(C)NC(=O)COc1ccc(CNc2ccc3[nH]c(=O)[nH]c3c2)cc1`, the solubility (kinetic) worked out at 0.8 µg/mL (≈ 2.17 µM).
Compound `CC(=O)Oc1ccc(C(=O)Nc2cc(C)on2)cc1` gave a kinetic solubility of 38.1 µg/mL (≈ 146 µM).
Under `Cc1ccc(C(=O)NC2CCCc3ccccc32)cc1[N+](=O)[O-]` (stereo not drawn) stands 9.3 µg/mL (≈ 30 µM); under `CC(OC(=O)c1cccnc1Cl)C(=O)Nc1ccc2c(c1)OCO2` (stereo not drawn), above 52.3 µg/mL; under `CN(c1ccccc1)S(=O)(=O)c1cc(C(=O)N2CCN(c3ncccn3)CC2)ccc1Cl`, 33.5 µg/mL (≈ 71 µM).
As to `Cl.Nc1ccc(Oc2cc(N)cc(Oc3ccccc3)c2)cc1`, the solubility (kinetic) amounted to 30.1 µg/mL.
`Cc1sc(N)nc1C12CC3CC(CC(C3)C1)C2` registered a kinetic solubility of 3.3 µg/mL (≈ 13.3 µM).
`O=C(c1cccc(S(=O)(=O)Nc2ccc(Br)cc2)c1)N1CCC1` yielded a kinetic solubility of 58.9 µg/mL (≈ 149 µM).
With `COc1cc(N2C(=O)CC3(CCCC3)CC2=O)cc(OC)c1OC` the figure was 47.2 µg/mL (≈ 142 µM); with `COc1ccc(N2CCN(CC(=O)NCc3ccccc3)CC2)cc1`, above 50.9 µg/mL.
Take `O=C(Nc1cc(S(=O)(=O)Nc2ccc(Cl)cc2)ccc1O)c1ccc(F)cc1F`: the solubility (kinetic) was 4.2 µg/mL (≈ 9.57 µM).
As for `COc1cc(OC)cc(C(=O)Nc2nnc(-c3cccnc3)o2)c1`, the solubility (kinetic) is above 48.9 µg/mL.
With `O=C(NC1CCN(Cc2cccc([N+](=O)[O-])c2)CC1)c1ccccc1` the figure was 32.4 µg/mL (≈ 95.5 µM); with `COC(=O)Nc1ccc(S(=O)(=O)Nc2cnc3ccccc3n2)cc1`, above 53.8 µg/mL.
`C=C(C)CN(CC)Cc1c(C(=O)N(C)CCCC)nc2ccccn12` yielded a solubility (kinetic) above 51.4 µg/mL.
With `Cc1ccc2nc(SCC(=O)Nc3ccc(C(N)=O)cc3)[nH]c2c1`, the kinetic solubility is 9.9 µg/mL (≈ 29.1 µM).
Under `CC(C)CCNC(=O)C1CCC(=O)N1CCc1ccccc1` (stereo not drawn) stands 42.8 µg/mL (≈ 142 µM); under `COc1ccc(COCC(O)CN2CCC(C(N)=O)CC2)cc1` (stereo not drawn), above 48.4 µg/mL.
As for `CC1Cc2cc(/C=C3/SC(=S)N(C)C3=O)ccc2O1` (stereo not drawn), the solubility (kinetic) was below 0.6 µg/mL.
Consider `C=CC[n+]1ccc(/C=C2\C=Cc3cc(C)ccc3N2CC)c2ccccc21.[Br-]`, for which the kinetic solubility was above 53 µg/mL.
With `Cc1ccc(NC(=O)Nc2cnccn2)cc1` the figure was 14.4 µg/mL (≈ 63.1 µM); with `CCc1cccc(NC(=S)N2CCC(c3ccccc3)C2)c1` (stereo not drawn), 4.6 µg/mL (≈ 14.8 µM).
`COc1ccccc1OCCNC(=O)C1CCCCC1` registered a solubility (kinetic) of 33.8 µg/mL (≈ 122 µM).
With `CC(C)Cn1c(-c2cccnc2)nc2c1c(=O)[nH]c(=O)n2CC(C)C` the figure was 45.7 µg/mL (≈ 134 µM).
With `CNC(=O)CSc1nc2cccnc2n1-c1ccc(F)cc1` the figure was 44.7 µg/mL (≈ 141 µM).
Under `O=C(c1cc(-c2ccc(O)cc2)on1)N1CCCCCC1` stands above 42.9 µg/mL; under `Cc1ccc(C(=O)N=c2sccn2C)o1`, 32.9 µg/mL (≈ 148 µM); under `Cn1c(N)c(C(=O)COC(=O)Cc2cccc(C(F)(F)F)c2)c(=O)n(C)c1=O`, 53.2 µg/mL (≈ 133 µM).
Turning to `Cl.Fc1ccc(-c2ccc(CNCc3ccccn3)o2)cc1`, the solubility (kinetic) amounted to 33.9 µg/mL.
`O=C(COC(=O)c1cccs1)NCCCc1ccccc1`: the solubility (kinetic) worked out at 20.1 µg/mL (≈ 66.3 µM).
Take `CSc1ccc(CNCCCSc2ncccn2)cc1.Cl`: the kinetic solubility was above 51.3 µg/mL.
With `COC(=O)c1ccc(Nc2ccc3nonc3c2[N+](=O)[O-])cc1` the figure was below 0.2 µg/mL; with `CCNS(=O)(=O)c1ccc(NC(=O)Nc2ccc3c(c2)OCO3)cc1`, 12.1 µg/mL (≈ 33.3 µM).
On to `O=C(NC1CCS(=O)(=O)C1)c1ccc(Br)s1` (stereo not drawn), for which the solubility (kinetic) was above 48.6 µg/mL.
Compound `CC1(C)C2CCC1(CS(=O)(=O)NC1CCCC1)C(=O)C2` (stereo not drawn) had a kinetic solubility above 44.9 µg/mL.
Under `Cc1ccc(OCCCCN2CCc3ccccc3C2)cc1.Cl` stands 22.8 µg/mL; under `COC(=O)c1sccc1NC(=O)c1ccccc1F`, 1 µg/mL (≈ 3.58 µM); under `Cc1ccc(NC(=O)CC2CCCC2)c(Br)c1`, 2.4 µg/mL (≈ 8.1 µM).
Regarding `Cl.O=C(O)CN1CCCCC1`, the solubility (kinetic) came to 23.8 µg/mL.
